Measurements: ChEMBL document CHEMBL4402510, “Caprazamycins: Promising lead structures acting on a novel antibacterial target MraY” (Eur J Med Chem, 2019)
Values after ≈ are worked out from the molar mass of the structure shown.

test system: Mycobacterium tuberculosis variant bovis; assay: Antibacterial activity against Mycobacterium bovis after 20 hrs by NCCLS-based two-fold broth dilution method; format: functional

Row | Structure (SMILES) | MIC
1 | CCCCc1ccc(NC(=O)C2=CCN(C)[C@@H]([C@H](O[C@@H]3O[C@H](CN)[C@@H](O)[C@H]3O)[C@H]3O[C@@H](n4ccc(=O)[nH]c4=O)[C@H](O)[C@@H]3O)C(=O)N2C)cc1 | 3.13 µg/mL (≈ 4.54 µM)

test system: Mycobacterium tuberculosis variant bovis; assay: Antibacterial activity against Mycobacterium bovis; format: functional

Row | Structure (SMILES) | MIC
2 | CO[C@@H]1[C@@H](OC)[C@H](C)O[C@@H](OC(=O)C[C@@H](C)CC(=O)O[C@@H](CCCCCCCCCCC(C)C)CC(=O)O[C@H]2CN(C)[C@@H]([C@H](O[C@@H]3O[C@H](CN)[C@@H](O)[C@H]3O)[C@H]3O[C@@H](n4ccc(=O)[nH]c4=O)[C@H](O)[C@@H]3O)C(=O)N(C)[C@@H]2C(=O)O)[C@@H]1OC | 3.13 µg/mL (≈ 2.73 µM)

test system: Mycobacterium tuberculosis variant bovis; assay: Antibacterial activity against Mycobacterium bovis Ravenel; format: functional

Row | Structure (SMILES) | MIC
3 | CCCCCCCCCCCCCCCCCNC(=O)C1=CCN(C)[C@@H]([C@H](O[C@@H]2O[C@H](CN)[C@@H](O)[C@H]2O)[C@H]2O[C@@H](n3ccc(=O)[nH]c3=O)[C@H](O)[C@@H]2O)C(=O)N1C | 1.56 µg/mL (≈ 1.96 µM)
4 | CCCCCCCCNC(=O)C1=CCN(C)[C@@H]([C@H](O[C@@H]2O[C@H](CN)[C@@H](O)[C@H]2O)[C@H]2O[C@@H](n3ccc(=O)[nH]c3=O)[C@H](O)[C@@H]2O)C(=O)N1C | 1.56 µg/mL (≈ 2.33 µM)
5 | CCCCCCCCCCCCCCCCCCCCCNC(=O)C1=CCN(C)[C@@H]([C@H](O[C@@H]2O[C@H](CN)[C@@H](O)[C@H]2O)[C@H]2O[C@@H](n3ccc(=O)[nH]c3=O)[C@H](O)[C@@H]2O)C(=O)N1C | 1.56 µg/mL (≈ 1.83 µM)
6 | CCCCCCCCCCCCCNC(=O)C1=CCN(C)[C@@H]([C@H](O[C@@H]2O[C@H](CN)[C@@H](O)[C@H]2O)[C@H]2O[C@@H](n3ccc(=O)[nH]c3=O)[C@H](O)[C@@H]2O)C(=O)N1C | 1.56 µg/mL (≈ 2.11 µM)
7 | CCCCCCCCCCCCCCCCCCCCNC(=O)C1=CCN(C)[C@@H]([C@H](O[C@@H]2O[C@H](CN)[C@@H](O)[C@H]2O)[C@H]2O[C@@H](n3ccc(=O)[nH]c3=O)[C@H](O)[C@@H]2O)C(=O)N1C | 0.78 µg/mL (≈ 0.932 µM)
8 | CCCCCCCC/C=C/CCCCCCCCNC(=O)C1=CCN(C)[C@@H]([C@H](O[C@@H]2O[C@H](CN)[C@@H](O)[C@H]2O)[C@H]2O[C@@H](n3ccc(=O)[nH]c3=O)[C@H](O)[C@@H]2O)C(=O)N1C | 3.13 µg/mL (≈ 3.88 µM)
9 | CCCCCCCCCCCCCOC(=O)C1=CCN(C)[C@@H]([C@H](O[C@@H]2O[C@H](CN)[C@@H](O)[C@H]2O)[C@H]2O[C@@H](n3ccc(=O)[nH]c3=O)[C@H](O)[C@@H]2O)C(=O)N1C | 3.13 µg/mL (≈ 4.23 µM)
10 | CCCCCCCCCCOC(=O)C1=CCN(C)[C@@H]([C@H](O[C@@H]2O[C@H](CN)[C@@H](O)[C@H]2O)[C@H]2O[C@@H](n3ccc(=O)[nH]c3=O)[C@H](O)[C@@H]2O)C(=O)N1C | 12.5 µg/mL (≈ 17.9 µM)
11 | CCc1ccc(NC(=O)C2=CCN(C)[C@@H]([C@H](O[C@@H]3O[C@H](CN)[C@@H](O)[C@H]3O)[C@H]3O[C@@H](n4ccc(=O)[nH]c4=O)[C@H](O)[C@@H]3O)C(=O)N2C)cc1 | 1.56 µg/mL (≈ 2.36 µM)
12 | CCCCc1ccc(NC(=O)C2=CCN[C@@H]([C@H](O[C@@H]3O[C@H](CN)[C@@H](O)[C@H]3O)[C@H]3O[C@@H](n4ccc(=O)[nH]c4=O)[C@H](O)[C@@H]3O)C(=O)N2C)cc1 | 3.13 µg/mL (≈ 4.64 µM)
13 | CCCCCCCCCCNC(=O)C1=CCN(C)[C@@H]([C@H](O[C@@H]2O[C@H](CN)[C@@H](O)[C@H]2O)[C@H]2O[C@@H](n3ccc(=O)[nH]c3=O)[C@H](O)[C@@H]2O)C(=O)N1C | 1.56 µg/mL (≈ 2.24 µM)
14 | CCCCCCCCCNC(=O)C1=CCN(C)[C@@H]([C@H](O[C@@H]2O[C@H](CN)[C@@H](O)[C@H]2O)[C@H]2O[C@@H](n3ccc(=O)[nH]c3=O)[C@H](O)[C@@H]2O)C(=O)N1C | 1.56 µg/mL (≈ 2.28 µM)
15 | CCCCCCCCCCCCCCCCCCOC(=O)C1=CCN(C)[C@@H]([C@H](O[C@@H]2O[C@H](CN)[C@@H](O)[C@H]2O)[C@H]2O[C@@H](n3ccc(=O)[nH]c3=O)[C@H](O)[C@@H]2O)C(=O)N1C | 3.13 µg/mL (≈ 3.86 µM)
16 | CCCCCCCCCCCCCCCCCCCNC(=O)C1=CCN(C)[C@@H]([C@H](O[C@@H]2O[C@H](CN)[C@@H](O)[C@H]2O)[C@H]2O[C@@H](n3ccc(=O)[nH]c3=O)[C@H](O)[C@@H]2O)C(=O)N1C | 1.56 µg/mL (≈ 1.9 µM)
17 | CCCCCCCOc1ccc(NC(=O)C2=CCN(C)[C@@H]([C@H](O[C@@H]3O[C@H](CN)[C@@H](O)[C@H]3O)[C@H]3O[C@@H](n4ccc(=O)[nH]c4=O)[C@H](O)[C@@H]3O)C(=O)N2C)cc1 | 0.78 µg/mL (≈ 1.04 µM)
18 | C=CCCCCCCCCCOC(=O)C1=CCN(C)[C@@H]([C@H](O[C@@H]2O[C@H](CN)[C@@H](O)[C@H]2O)[C@H]2O[C@@H](n3ccc(=O)[nH]c3=O)[C@H](O)[C@@H]2O)C(=O)N1C | 12.5 µg/mL (≈ 17.6 µM)

Row | Structure (SMILES) | MIC
19 | CCCCCCc1ccc(NC(=O)C2=CCN(C)[C@@H]([C@H](O[C@@H]3O[C@H](CN)[C@@H](O)[C@H]3O)[C@H]3O[C@@H](n4ccc(=O)[nH]c4=O)[C@H](O)[C@@H]3O)C(=O)N2C)cc1 | 0.2 µg/mL (≈ 0.279 µM)
20 | CCCCCCCNC(=O)C1=CCN(C)[C@@H]([C@H](O[C@@H]2O[C@H](CN)[C@@H](O)[C@H]2O)[C@H]2O[C@@H](n3ccc(=O)[nH]c3=O)[C@H](O)[C@@H]2O)C(=O)N1C | 1.56 µg/mL (≈ 2.38 µM)
21 | CCCCCCCCCCCCCCNC(=O)C1=CCN(C)[C@@H]([C@H](O[C@@H]2O[C@H](CN)[C@@H](O)[C@H]2O)[C@H]2O[C@@H](n3ccc(=O)[nH]c3=O)[C@H](O)[C@@H]2O)C(=O)N1C | 1.56 µg/mL (≈ 2.07 µM)
22 | CCCCCCCc1ccc(NC(=O)C2=CCN(C)[C@@H]([C@H](O[C@@H]3O[C@H](CN)[C@@H](O)[C@H]3O)[C@H]3O[C@@H](n4ccc(=O)[nH]c4=O)[C@H](O)[C@@H]3O)C(=O)N2C)cc1 | 0.78 µg/mL (≈ 1.07 µM)
23 | CCCCCCCCCCCNC(=O)C1=CCN(C)[C@@H]([C@H](O[C@@H]2O[C@H](CN)[C@@H](O)[C@H]2O)[C@H]2O[C@@H](n3ccc(=O)[nH]c3=O)[C@H](O)[C@@H]2O)C(=O)N1C | 1.56 µg/mL (≈ 2.19 µM)
24 | CCCCCCCCCCCCCCc1ccc(NC(=O)C2=CCN(C)[C@@H]([C@H](O[C@@H]3O[C@H](CN)[C@@H](O)[C@H]3O)[C@H]3O[C@@H](n4ccc(=O)[nH]c4=O)[C@H](O)[C@@H]3O)C(=O)N2C)cc1 | 3.13 µg/mL (≈ 3.78 µM)
25 | CC/C=C/CCCCCCCCCCOC(=O)C1=CCN(C)[C@@H]([C@H](O[C@@H]2O[C@H](CN)[C@@H](O)[C@H]2O)[C@H]2O[C@@H](n3ccc(=O)[nH]c3=O)[C@H](O)[C@@H]2O)C(=O)N1C | 6.25 µg/mL (≈ 8.31 µM)
26 | CCCCCNC(=O)C1=CCN(C)[C@@H]([C@H](O[C@@H]2O[C@H](CN)[C@@H](O)[C@H]2O)[C@H]2O[C@@H](n3ccc(=O)[nH]c3=O)[C@H](O)[C@@H]2O)C(=O)N1C | 6.25 µg/mL (≈ 9.97 µM)
27 | CCCCCCCCCCCCNC(=O)C1=CCN(C)[C@@H]([C@H](O[C@@H]2O[C@H](CN)[C@@H](O)[C@H]2O)[C@H]2O[C@@H](n3ccc(=O)[nH]c3=O)[C@H](O)[C@@H]2O)C(=O)N1C | 1.56 µg/mL (≈ 2.15 µM)
28 | CCCCCCCCCCCCCCCCCCNC(=O)C1=CCN(C)[C@@H]([C@H](O[C@@H]2O[C@H](CN)[C@@H](O)[C@H]2O)[C@H]2O[C@@H](n3ccc(=O)[nH]c3=O)[C@H](O)[C@@H]2O)C(=O)N1C | 1.56 µg/mL (≈ 1.93 µM)
29 | CCCCOc1ccc(NC(=O)C2=CCN(C)[C@@H]([C@H](O[C@@H]3O[C@H](CN)[C@@H](O)[C@H]3O)[C@H]3O[C@@H](n4ccc(=O)[nH]c4=O)[C@H](O)[C@@H]3O)C(=O)N2C)cc1 | 3.13 µg/mL (≈ 4.44 µM)
30 | CCCCCCCCCCCCCCCNC(=O)C1=CCN(C)[C@@H]([C@H](O[C@@H]2O[C@H](CN)[C@@H](O)[C@H]2O)[C@H]2O[C@@H](n3ccc(=O)[nH]c3=O)[C@H](O)[C@@H]2O)C(=O)N1C | 1.56 µg/mL (≈ 2.03 µM)
31 | CCCCCCNC(=O)C1=CCN(C)[C@@H]([C@H](O[C@@H]2O[C@H](CN)[C@@H](O)[C@H]2O)[C@H]2O[C@@H](n3ccc(=O)[nH]c3=O)[C@H](O)[C@@H]2O)C(=O)N1C | 3.13 µg/mL (≈ 4.89 µM)
32 | CN1C(=O)[C@H]([C@H](O[C@@H]2O[C@H](CN)[C@@H](O)[C@H]2O)[C@H]2O[C@@H](n3ccc(=O)[nH]c3=O)[C@H](O)[C@@H]2O)N(C)CC=C1C(=O)Nc1ccc(C2CCCCC2)cc1 | 1.56 µg/mL (≈ 2.18 µM)
33 | CN1C(=O)[C@H]([C@H](O[C@@H]2O[C@H](CN)[C@@H](O)[C@H]2O)[C@H]2O[C@@H](n3ccc(=O)[nH]c3=O)[C@H](O)[C@@H]2O)N(C)CC=C1C(=O)NC1CCCCCCCCCCC1 | 1.56 µg/mL (≈ 2.16 µM)
34 | CCCCCCCCCCCCCCCCNC(=O)C1=CCN(C)[C@@H]([C@H](O[C@@H]2O[C@H](CN)[C@@H](O)[C@H]2O)[C@H]2O[C@@H](n3ccc(=O)[nH]c3=O)[C@H](O)[C@@H]2O)C(=O)N1C | 3.13 µg/mL (≈ 4.01 µM)
